According to patent US20240384250A1, “FIBROBLAST GROWTH FACTOR 23 MODULATING COMPOUNDS” (THE UAB RESEARCH FOUNDATION, priority 2021, published 2024):

Columns and labels:
FGF23 = target: T1, FGF23 (Homo sapiens, UniProt Q9GZV9); experiment: Plate-based binding assay, FGF23 coated, FLAG-sKL detected with anti-FLAG HRP; conditions: 2 mM glucosamine or 12.5 ng/ml tunicamycin for 48 hours
T1 construct: purchased R&D Systems 2604FG025/CF (human) or 2629FG025/CF (mouse)
Protocol: (§1) Proteins were coated on 96-well plates (MaxiSorp; 439454, Thermo Fisher Scientific), and proteins were added to wells in 100 μl of enzyme-linked immunosorbent assay (ELISA) coating buffer (E107, Bethyl Laboratories) with a lid placed overtop and incubated at 4° C. overnight. Plates were washed 5× with 350 μl of assay buffer (50 mM Tris [pH 7.4], 200 mM NaCl, 0.01% Tween 20) on a 50 TS microplate washer (BioTek). Plates were blocked for 1 hour in 200 μl of assay buffer with 0.5% BSA. Plates were washed as before, and proteins were incubated on plates in 100 μl of assay buffer with 0.5% BSA. Proteins or heparin was incubated in orders described in the respective figure legends. Assays using FLAG-tag-based detection were incubated with anti-FLAG coupled to HRP at 1:20,000, and assays using Fc detection were incubated with anti-human Fc coupled to HRP at 1:10,000. […] Reactions were stopped with ELISA stop solution (E115, Bethyl Laboratories) and analyzed using the Synergy HI plate reader (BioTek) at 450 nm wavelength. […] As a control to remove background absorbance values, wells were coated with an equal amount of BSA to match the amount of protein coated in experimental wells and treated the same as experimental wells. […]

[1] = test system: phosphorylated ERK in HEK293T cells; experiment: ERK phosphorylation in serum-starved HEK293 cells (Western blotting); assay type: cell-based, human; conditions: FGF 1.1 nM for 10 minutes, absence of sKL
Protocol: The sample (20 μl) was loaded onto Mini-PROTEAN TGX Precast Gel 4-20% for experiments with <9 samples (4568094, Bio-Rad) or Criterion TGX Precast Gel 4-20% (5678094, Bio-Rad) for experiments with >9 samples. Gels were run in 1× Tris/Glycine/SDS buffer (1610732, Bio-Rad) at 150 V and stopped when the sample dye reached the end of the gel. Gels were removed and electrotransferred via a semi-dry cassette (1703940, Bio-Rad) in I× Tris/Glycine buffer (1610734, Bio-Rad) with 20% methanol. Gels were transferred onto polyvinylidene diflouride membranes (IPVH00010, Millipore) at 20 V for 1 hour. Membranes were then blocked in 5% dried milk with 0.5% Tween 20 diluted in Tris-buffered saline (TBST; pH 7.5) for 1 hour and probed with antibodies against specific antigens at 1:1000 in TBST with 5% dried milk. Blots were washed 3× for 5 minutes in TBST and probed with HRP-coupled secondary antibodies against specific species at 1:10,000 in TBST with 5% dried milk. Membranes were imaged on the SRX-101A X-ray film developer (Konica Minolta).
To determine the cellular activity of paracrine FGFs, the activation/phosphorylation of ERK in HEK293 cells after treatment was studied. […] Twenty microliters of samples was loaded onto 12% SDS-PAGE gels and analyzed using Western blotting for total and phosphorylated ERK.

FGF2 binding to FGFR1c = target: T2, FGF2 binding to FGFR1c (Homo sapiens, UniProt P11362); experiment: Plate-based binding of paracrine FGF to Fc-FGFR1c with heparin and/or sKL; conditions: absence of sKL
T2 construct: a chimeric protein consisting of the FGFR1 ectodomain and the Fc region of a human IgG; purchased R&D Systems 233-FB/CF; 658FR050
T2 sequence (P11362 22-376 limits assumed): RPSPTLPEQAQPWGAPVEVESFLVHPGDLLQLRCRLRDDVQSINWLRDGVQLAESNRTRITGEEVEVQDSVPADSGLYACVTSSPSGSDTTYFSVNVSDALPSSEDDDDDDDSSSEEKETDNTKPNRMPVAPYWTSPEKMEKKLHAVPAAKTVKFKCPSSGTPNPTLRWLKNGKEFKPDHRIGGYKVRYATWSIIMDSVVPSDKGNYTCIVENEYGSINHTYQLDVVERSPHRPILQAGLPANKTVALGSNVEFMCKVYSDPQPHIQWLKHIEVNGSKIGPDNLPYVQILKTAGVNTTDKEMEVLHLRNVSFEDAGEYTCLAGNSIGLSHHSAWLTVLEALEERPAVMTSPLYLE
Protocol: Proteins were coated on 96-well plates (MaxiSorp; 439454, Thermo Fisher Scientific), and proteins were added to wells in 100 μl of enzyme-linked immunosorbent assay (ELISA) coating buffer (E107, Bethyl Laboratories) with a lid placed overtop and incubated at 4° C. overnight. Plates were washed 5× with 350 μl of assay buffer (50 mM Tris [pH 7.4], 200 mM NaCl, 0.01% Tween 20) on a 50 TS microplate washer (BioTek). Plates were blocked for 1 hour in 200 μl of assay buffer with 0.5% BSA. Plates were washed as before, and proteins were incubated on plates in 100 μl of assay buffer with 0.5% BSA. Proteins or heparin was incubated in orders described in the respective figure legends. Assays using FLAG-tag-based detection were incubated with anti-FLAG coupled to HRP at 1:20,000, and assays using Fc detection were incubated with anti-human Fc coupled to HRP at 1:10,000. Plates were washed as above, and 100 μl of 3,3′,5,5′-tetramethylbenzidine (TMB) substrate (E102, Bethyl Laboratories) was added for 15 to 20 minutes until positive wells developed a dark blue color. Reactions were stopped with ELISA stop solution (E115, Bethyl Laboratories) and analyzed using the Synergy HI plate reader (BioTek) at 450 nm wavelength. […] As a control to remove background absorbance values, wells were coated with an equal amount of BSA to match the amount of protein coated in experimental wells and treated the same as experimental wells. To study the effects of sKL on the binding between paracrine FGFs and FGFRs, plates were run as above except coated with paracrine FGFs. Fc-FGFR1 was preincubated with sKL or vehicle for 60 minutes, and then the combination was added to wells and the assay was run as before.

FGFR1c = target: T3, FGFR1c (Homo sapiens, UniProt P11362); experiment: Plate-based binding assay, FGFR1c coated, FLAG-sKL detected with anti-FLAG HRP; conditions: 12.5 ng/ml tunicamycin for 48 hours
T3 construct: Fc-coupled FGFR ectodomains were immobilized on protein A/G beads; purchased R&D Systems 658FR050
Protocol: as §1

T1 sequence (Q9GZV9 25-251, species assumed): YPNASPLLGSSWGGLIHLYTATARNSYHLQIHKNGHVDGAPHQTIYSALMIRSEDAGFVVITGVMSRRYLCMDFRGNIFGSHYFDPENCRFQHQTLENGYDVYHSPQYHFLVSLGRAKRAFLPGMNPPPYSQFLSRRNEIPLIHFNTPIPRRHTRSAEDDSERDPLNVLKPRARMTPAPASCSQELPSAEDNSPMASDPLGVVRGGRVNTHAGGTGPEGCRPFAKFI

Compound	FGF23 binding affinity of sKL in media of inhibitor-treated HEK293 cells (FGF23)	ERK phosphorylation induced by FGF [1]	FGF2 binding to FGFR1c (FGF2 binding to FGFR1c)	FGFR1c binding of sKL in media of inhibitor-treated HEK293 cells (FGFR1c)
N[C@H]1C(O)O[C@H](CO)[C@@H](O)[C@@H]1O (some centres unmarked) [Glucosmine, glucosamine, reference compound]	had an effect			
FGF2: recombinant human FGF2 from R&D Systems		induced ERK phosphorylation	FGFR1c bound FGF2	
tunicamycin [reference compound]	much higher FGF23 binding affinity			did not affect the FGFR1c binding
